Data reported in the supplement of paper PMC11208160.

Assay: recombinant barcode read abundance after kanamycin selection (control-corrected) (log10(CPM+1)); higher = more efficient recombination; sequences stand for … in AGTGCAGAGAAAATCGGCCAGTTTTCTCTGCCTGCAGTCCGCATGCCGT…AGATTTATGCAGCGGACTGCCTTTCTCCCAAAGTGATAAACCGGACAGTATCATGGACCGGTTTTCCCGGTAATCCGTATTTGCAAGGTTGGTTTCACT; site = the 11-nt target
Method in brief: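 Oligos holding a promoter, target, barcode and the J23119-driven first 104 bases of the bridge RNA were Gibson-cloned into a vector that supplied the other 73 bp plus a T7-inducible recombinase. This library was co-electroporated with a donor plasmid into E. coli. Two replicates went on chloramphenicol/ampicillin LB agar (control) and two on chloramphenicol/ampicillin/kanamycin with 0.1 mM IPTG. Recombination efficiency is read from averaged, control-corrected barcode counts per million at recombinant junctions, reported as log10(CPM+1).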
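Note: IS621 recombinase and bridge RNA in Escherichia coli cells.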

Sequence	recombinant barcode read abundance (log10)
CTGAGCCCTTGGGTTCTAACCTGTTGCCT (site CTGTGCCCTAG)	0.0331
CTGAGCCCTTGGGTTCTAACCTGTTGCTG (site CAGAGCCCTCA)	0.327
CTGAGCCCTTGGGTTCTAACCTGTTGCTG (site CTGAGCCCTCA)	1.5
CTGCACCCTTGGGTTCTAACCTGTTGCCT (site CGCCACCCTAG)	0.411
CTGCACCCTTGGGTTCTAACCTGTTGCCT (site CTGCACCCTAG)	1.57
CTGCTGTCTTGGGTTCTAACCTGTTGCCA (site CTGATGTCTTG)	0.154
CTGCTGTCTTGGGTTCTAACCTGTTGCCA (site CTGCTGTCTTG)	0.095
CTGCTGTCTTGGGTTCTAACCTGTTGCCA (site CTGGTGTCTTG)	0.402
CTGCTGTCTTGGGTTCTAACCTGTTGCCA (site CTGTTGTCTTG)	0.0953
CTGGATCCTTGGGTTCTAACCTGTTGCCT (site CTCGACCCTAG)	0.0729
CTGGATCCTTGGGTTCTAACCTGTTGCCT (site CTGGATCCTAG)	2.25
CTGGGCTCTTGGGTTCTAACCTGTTGCCA (site CTGGGCTCTTG)	1.14
CTGGGCTCTTGGGTTCTAACCTGTTGCCA (site GTGGGCTCTAG)	0.282
CTGGGTTCTTGGGTTCTAACCTGTTGCCT (site CAGGGTTCTAG)	0.0887
CTGGGTTCTTGGGTTCTAACCTGTTGCCT (site CCGGGTTCTAG)	0.138
CTGGGTTCTTGGGTTCTAACCTGTTGCCT (site CGGGGTTCTAG)	0.312
CTGGGTTCTTGGGTTCTAACCTGTTGCCT (site CTGGGTTCTAG)	0.17
CTGGTCACTTGGGTTCTAACCTGTTGCGG (site CTAGACACTCC)	0.11
CTGGTCACTTGGGTTCTAACCTGTTGCGG (site CTGGTCACTCC)	2.74
CTGGTCCCTTGGGTTCTAACCTGTTGCGG (site CTGATCCCTCC)	0.983
CTGGTCCCTTGGGTTCTAACCTGTTGCGG (site CTGCTCCCTCC)	0.0151
CTGGTCCCTTGGGTTCTAACCTGTTGCGG (site CTGGTCCCTCC)	2.72

Sequence	recombinant barcode read abundance (log10)
CTGGTCCCTTGGGTTCTAACCTGTTGCGG (site CTGTTCCCTCC)	0.151
CTGTCTCCTTGGGTTCTAACCTGTTGCGT (site AGAAGCACTTG)	0.11
CTGTCTCCTTGGGTTCTAACCTGTTGCGT (site CTGTCTCCTAC)	0.833
CTGTGGACTTGGGTTCTAACCTGTTGCAG (site CTCTGGACTGT)	0
CTGTGGACTTGGGTTCTAACCTGTTGCAG (site CTGTGGACTCT)	1.13
CTGTTATCTTGGGTTCTAACCTGTTGCCT (site CTATTATCTAG)	0.127
CTGTTATCTTGGGTTCTAACCTGTTGCCT (site CTGTTATCTAG)	0.237
CTTAAATCTTGGGTTCTAACCTGTTGCCT (site CTTAAATCTAG)	0.0558
CTTAAATCTTGGGTTCTAACCTGTTGCCT (site CTTCAATCTAG)	0.0867
CTTAAATCTTGGGTTCTAACCTGTTGCCT (site CTTGAATCTAG)	0.24
CTTAAATCTTGGGTTCTAACCTGTTGCCT (site CTTTAATCTAG)	0.165
CTTACCGCTTGGGTTCTAACCTGTTGCCT (site CTTACAGCTAG)	0.137
CTTACCGCTTGGGTTCTAACCTGTTGCCT (site CTTACCGCTAG)	1.19
CTTACCGCTTGGGTTCTAACCTGTTGCCT (site CTTACGGCTAG)	0.235
CTTACCGCTTGGGTTCTAACCTGTTGCCT (site CTTACTGCTAG)	0.273
CTTAGCTCTTGGGTTCTAACCTGTTGCCT (site CGTAGGTCTAG)	0.009
CTTAGCTCTTGGGTTCTAACCTGTTGCCT (site CTTAGCTCTAG)	1.15
CTTAGGACTTGGGTTCTAACCTGTTGCCC (site CTTAGGACTAG)	0.374
CTTAGGACTTGGGTTCTAACCTGTTGCCC (site CTTAGGACTCG)	0.283
CTTAGGACTTGGGTTCTAACCTGTTGCCC (site CTTAGGACTGG)	0.404
CTTAGGACTTGGGTTCTAACCTGTTGCCC (site CTTAGGACTTG)	0.00992
CTTCACGCTTGGGTTCTAACCTGTTGCCT (site CTTCACACTAT)	0.177

Sequence	recombinant barcode read abundance (log10)
CTTCACGCTTGGGTTCTAACCTGTTGCCT (site CTTCACGCTAG)	1.21
CTTCAGCCTTGGGTTCTAACCTGTTGCCT (site CTTCAACCTAG)	0.612
CTTCAGCCTTGGGTTCTAACCTGTTGCCT (site CTTCACCCTAG)	0.259
CTTCAGCCTTGGGTTCTAACCTGTTGCCT (site CTTCAGCCTAG)	0.789
CTTCAGCCTTGGGTTCTAACCTGTTGCCT (site CTTCATCCTAG)	0
CTTCAGGCTTGGGTTCTAACCTGTTGCCT (site CTTCAGGCTAG)	0.594
CTTCAGGCTTGGGTTCTAACCTGTTGCCT (site CTTGAGACTAG)	0.0551
CTTCCTTCTTGGGTTCTAACCTGTTGCCT (site CTCCCTTCTAA)	0.128
CTTCCTTCTTGGGTTCTAACCTGTTGCCT (site CTTCCTTCTAG)	0.543
CTTCGAGCTTGGGTTCTAACCTGTTGCCG (site CTTCGAGCTCA)	0.112
CTTCGAGCTTGGGTTCTAACCTGTTGCCG (site CTTCGAGCTCC)	0.0907
CTTCGAGCTTGGGTTCTAACCTGTTGCCG (site CTTCGAGCTCG)	0.873
CTTCGAGCTTGGGTTCTAACCTGTTGCCG (site CTTCGAGCTCT)	0.138
CTTGAGCCTTGGGTTCTAACCTGTTGCGT (site CTTGAGCCTAC)	2.87
CTTGAGCCTTGGGTTCTAACCTGTTGCGT (site GTTGAGTCTAC)	0.0339
CTTGGGCCTTGGGTTCTAACCTGTTGCGG (site CTTGGGCCTCC)	2.67
CTTGGGCCTTGGGTTCTAACCTGTTGCGG (site GTTGGGGCTCC)	0.0414
CTTGGGTCTTGGGTTCTAACCTGTTGCCT (site CTTGGGTCTAG)	0.998
CTTGGGTCTTGGGTTCTAACCTGTTGCCT (site CTTGGTTCTAG)	0.122
CTTTGTACTTGGGTTCTAACCTGTTGCCT (site CCTTGTACTAG)	0.265
CTTTGTACTTGGGTTCTAACCTGTTGCCT (site CTTTGTACTAG)	0.419
GAAAACTCTTGGGTTCTAACCTGTTGCCT (site AGGTCTACTCC)	0.104
